For data set [1] the following is noted: 68Ga-labelled conjugates.
Experimental: (§3) Tz functionalization was performed by reaction with NHS-PEG5-Tz with FSC (resulting in the trimer FSC-(PEG5-Tz)3), MAFC (resulting in the dimer MAFC-(PEG5-Tz)2) and DAFC (resulting in the monomer DAFC-(PEG5-Tz), starting from its ferric complex with final iron removal by EDTA, HPLC purification and characterization by MS. ^68Ga-labelling was performed in acetate buffer (pH 4.5) at high s.a., resulting complexes were characterized by HPLC, protein binding, log P and stability was assessed. Rituximab was functionalized with NHS-TCO according to published procedures (Rtx-TCO). Binding of Tz-conjugates to TCO was assessed on Rtx-TCO immobilized 96well plates as well as after binding of Rtx-TCO vs Rtx to Raji cells expressing CD20 followed by incubation with 68Ga-Tz-conjugate. Biodistribution was studied in normal balb-c mice.
Data set [2] deals with Raji cells expressing CD20. Nature of the data set: binding of 68Ga-Tz-conjugate after binding of Rtx-TCO to Raji cells. Format: cell-based.
The conditions of data set [3]: 1h p.i., normal balb-c mice.
Experimental: as §3
For data set [4] the following is noted: 68Ga-labelled conjugates. The source holds these as a separate data set.
Experimental: as §3
For data set [5] the following is noted: 37°C, 24h incubation. On the procedure:
Methods: 177Lu-DOTATATE (Lutathera®) was diluted to 1/5th in saline, 5% Glucose, Bicarbonate 8.4% solution, Ringer-Lactate, octreotide solution, octreotide LAR or incubated at 37°C in plasma or plasma enriched with 10% de octreotide. Radiochemical purity (RPC) was determined by ITLC-SG in 0.1mol/L sodium citrate pH=3. […] RPC was also determined using C18 Sep-Pack-Plus cartridge (Waters, USA). The free radionuclide was eluted with 5mL of 0.1mol/L acetate buffer pH=3 and the labelled peptide with 5mL of methanol, and hydroxylated Lu-177 remained inside the cartridge. Mixtures were then analyzed immediately, 30min and 24h after dilution. […] Binary comparisons to the undiluted product were made by a Mann-and-Whitney U test and stability over time checked by a 1-way ANOVA (p < 5%).

In another data set the target is T1, mGluR1 (Mus musculus, UniProt P97772).
T1 construct: PET probe for imaging the kinetics of mGluR1 in mouse brain; from tissue; host or cells: brain of living WT Q175DN mice
T1 sequence (P97772 21-1199): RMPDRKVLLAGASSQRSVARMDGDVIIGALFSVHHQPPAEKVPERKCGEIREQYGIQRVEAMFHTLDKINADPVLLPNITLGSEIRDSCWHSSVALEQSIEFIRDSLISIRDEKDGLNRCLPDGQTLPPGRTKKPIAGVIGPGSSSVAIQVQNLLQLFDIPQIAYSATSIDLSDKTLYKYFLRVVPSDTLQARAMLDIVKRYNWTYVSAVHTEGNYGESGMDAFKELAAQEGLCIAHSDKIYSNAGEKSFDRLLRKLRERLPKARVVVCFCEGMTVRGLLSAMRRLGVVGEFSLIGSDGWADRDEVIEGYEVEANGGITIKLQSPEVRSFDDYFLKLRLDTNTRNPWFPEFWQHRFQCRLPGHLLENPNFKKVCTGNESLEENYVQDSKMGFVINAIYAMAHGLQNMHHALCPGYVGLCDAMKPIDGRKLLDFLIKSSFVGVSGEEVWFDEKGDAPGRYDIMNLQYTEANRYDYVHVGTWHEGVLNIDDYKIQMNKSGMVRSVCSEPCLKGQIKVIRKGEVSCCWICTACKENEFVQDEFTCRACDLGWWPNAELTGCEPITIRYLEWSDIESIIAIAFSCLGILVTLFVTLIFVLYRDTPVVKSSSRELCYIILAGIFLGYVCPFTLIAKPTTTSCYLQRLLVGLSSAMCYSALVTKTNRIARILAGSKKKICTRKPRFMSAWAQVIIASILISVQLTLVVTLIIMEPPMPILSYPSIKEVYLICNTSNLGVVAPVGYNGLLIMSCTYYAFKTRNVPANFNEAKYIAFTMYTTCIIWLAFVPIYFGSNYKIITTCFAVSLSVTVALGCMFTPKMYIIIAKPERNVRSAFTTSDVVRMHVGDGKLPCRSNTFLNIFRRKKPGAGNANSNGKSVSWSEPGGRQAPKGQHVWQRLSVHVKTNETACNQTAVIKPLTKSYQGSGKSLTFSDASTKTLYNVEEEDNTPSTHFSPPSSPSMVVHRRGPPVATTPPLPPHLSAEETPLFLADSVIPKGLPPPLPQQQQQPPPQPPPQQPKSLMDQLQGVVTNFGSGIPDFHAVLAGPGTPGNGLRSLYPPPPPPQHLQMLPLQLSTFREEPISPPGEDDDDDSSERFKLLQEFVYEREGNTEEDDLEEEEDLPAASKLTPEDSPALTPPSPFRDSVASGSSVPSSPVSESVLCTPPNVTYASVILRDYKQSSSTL
Briefly: [11C]ITDM microPET in mouse brain. Format: in vivo. On the procedure:
Methods: We validated [^11C]ITDM as a PET probe for imaging the kinetics of mGluR1 in mouse brain. [^11C]ITDM was prepared by modification of a previously described method^1 in a module (Comecer Netherlands) adapted for automated production. In a cooled solution containing the arylstannane precursor (1.9mg), K2CO3 (2.1mg), CuCl2 (1.5mg), Pd2(dba)3 (1.3mg) and P(o-tol)3 (1.7mg) in DMF purged with N2, [^11C]MeI was bubbled, followed by reaction at 65°C for 5min. The mixture was purified by reverse phase semi-preparative HPLC (tR=8.5min), using MeCN:H2O:Et3N (6:4:0.01, V/V/V) as mobile phase (2.7mL/min) followed by sterile formulation into ethanolic saline containing 0.5% ascorbic acid, using a C18 Sep-Pak cartridge. For in vivo evaluation, WT Q175DN mice (n = 9; 11 months old) were intravenously (i.v.) injected with [^11C]ITDM (5.69±2.4MBq; injected mass=0.87±0.33μg/kg) and dynamically scanned for 90min (Siemens Inveon μPET/CT). To validate target engagement, blocking and displacement studies with mGluR1 antagonist YM-202074 (20mg/kg; i.v.; 2min before and 30min after tracer injection, respectively) were performed. Total volume of distribution (VT) (from 2TCM) was calculated noninvasively using an image-derived input function (IDIF) in several brain regions.

For another data set, the target named is T2, GABAB receptors (Mus musculus, UniProt Q9WV18).
T2 construct: from tissue; host or cells: brain of CD-1 male mice (in vivo / ex vivo)
T2 sequence (Q9WV18 20-960): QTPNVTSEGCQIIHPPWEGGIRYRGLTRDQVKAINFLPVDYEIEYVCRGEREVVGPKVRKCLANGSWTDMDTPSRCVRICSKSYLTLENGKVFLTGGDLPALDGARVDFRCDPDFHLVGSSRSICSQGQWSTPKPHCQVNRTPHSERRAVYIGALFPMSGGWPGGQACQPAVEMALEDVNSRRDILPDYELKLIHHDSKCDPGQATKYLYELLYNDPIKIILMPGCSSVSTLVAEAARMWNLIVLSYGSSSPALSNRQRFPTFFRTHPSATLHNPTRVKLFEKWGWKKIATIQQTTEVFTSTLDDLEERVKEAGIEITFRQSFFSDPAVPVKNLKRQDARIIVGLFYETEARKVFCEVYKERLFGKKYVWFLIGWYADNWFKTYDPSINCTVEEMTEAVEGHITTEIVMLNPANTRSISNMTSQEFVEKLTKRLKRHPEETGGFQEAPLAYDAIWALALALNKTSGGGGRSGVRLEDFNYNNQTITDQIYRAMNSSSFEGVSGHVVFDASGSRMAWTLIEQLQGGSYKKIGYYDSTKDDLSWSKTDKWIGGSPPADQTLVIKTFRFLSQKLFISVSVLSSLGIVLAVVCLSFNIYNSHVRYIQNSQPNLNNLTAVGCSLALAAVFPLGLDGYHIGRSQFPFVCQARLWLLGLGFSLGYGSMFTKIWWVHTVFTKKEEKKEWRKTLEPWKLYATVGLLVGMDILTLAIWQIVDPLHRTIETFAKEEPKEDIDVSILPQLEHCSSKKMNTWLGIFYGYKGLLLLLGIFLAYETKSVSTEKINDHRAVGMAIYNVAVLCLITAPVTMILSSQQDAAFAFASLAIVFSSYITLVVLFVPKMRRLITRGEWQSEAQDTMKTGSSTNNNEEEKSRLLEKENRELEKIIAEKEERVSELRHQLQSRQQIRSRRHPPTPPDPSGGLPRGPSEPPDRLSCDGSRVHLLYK
T2 sequence (Q80T41 41-940 partner): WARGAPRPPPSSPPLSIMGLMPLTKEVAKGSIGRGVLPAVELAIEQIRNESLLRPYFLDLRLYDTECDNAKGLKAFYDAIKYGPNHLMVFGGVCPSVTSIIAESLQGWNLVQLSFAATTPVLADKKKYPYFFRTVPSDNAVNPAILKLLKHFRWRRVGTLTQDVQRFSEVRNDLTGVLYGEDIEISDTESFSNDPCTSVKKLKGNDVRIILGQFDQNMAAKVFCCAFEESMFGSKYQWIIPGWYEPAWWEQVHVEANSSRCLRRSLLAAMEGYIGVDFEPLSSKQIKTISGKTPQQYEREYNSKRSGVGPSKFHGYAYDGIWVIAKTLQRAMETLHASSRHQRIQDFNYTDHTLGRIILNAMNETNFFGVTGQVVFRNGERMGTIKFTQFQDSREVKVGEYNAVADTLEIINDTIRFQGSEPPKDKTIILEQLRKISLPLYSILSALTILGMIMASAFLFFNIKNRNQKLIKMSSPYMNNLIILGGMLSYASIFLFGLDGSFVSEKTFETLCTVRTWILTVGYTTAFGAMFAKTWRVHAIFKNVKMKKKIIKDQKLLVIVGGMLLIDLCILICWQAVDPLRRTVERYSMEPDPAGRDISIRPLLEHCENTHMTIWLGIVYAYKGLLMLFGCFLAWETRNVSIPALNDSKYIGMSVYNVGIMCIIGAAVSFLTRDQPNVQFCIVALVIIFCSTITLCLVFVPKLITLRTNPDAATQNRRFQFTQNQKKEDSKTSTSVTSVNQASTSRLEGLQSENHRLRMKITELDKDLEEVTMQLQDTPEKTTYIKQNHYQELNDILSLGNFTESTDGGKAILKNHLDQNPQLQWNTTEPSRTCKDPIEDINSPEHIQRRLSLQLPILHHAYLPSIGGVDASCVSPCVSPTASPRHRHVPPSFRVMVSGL
Format: in vivo, mice. The procedure:
Methods: New GABAB agonists, fluoropyridylmethoxy analogues of baclofen, were synthesized. The in vitro potency of these new compounds was determined commercially. […] The regional brain distribution of the radiolabeled [^18F]1 was studied in CD-1 male mice.

The nature of the next data set: in vivo. To be noted: BALB/c nude, mouse, total radioactivity. On the procedure: (§1) Methods: The new MG analogue DOTA-MGS5 was designed based on a combination of the substitutions applied in peptide derivatives previously developed by our group (1). The in vitro and in vivo characterisation after radiolabelling with In-111 and Lu-177 included stability analyses of the radioligands incubated in rat tissue homogenates and after injection into BALB/c mice. Receptor interaction in terms of receptor affinity and cell uptake was analysed using A431 human epidermoid carcinoma cells transfected with human CCK2R (A431-CCK2R) and mock-transfected cells (A431-mock). The targeting potential was evaluated by small animal dual modality single photon emission computed tomography (NanoSPECT/CT) as well as ex vivo biodistribution studies in tumour bearing BALB/c nude mice up to 4 h after injection.

The conditions of data set [6]: after 10 min, BALB/c mice in vivo. The procedure:
as §1

The nature of data set [7]: plutonium decorporation in rats. Format: in vivo. Particulars: delayed administration, of the levels in untreated control rats. On the procedure: Methods: Unilamellar liposomes (DSPC/Cholesterol/DSPE 69:30:1) were used to encapsulate DTPA (25mM). For decorporation experiments, rats were first contaminated by intravenous administration of the soluble citrate form of ^238Pu (4 to 10.3 kBq), before injection of DTPA, marketed free form or encapsulated in liposomes (2.25 at 6.74 μmol/kg). Treatment schedules started at one hour (prompt treatment) or at seven days (delayed treatment) after contamination and were given as a single injection or repeated injections. A prophylactic single treatment was also tested given at three days before contamination. Organs of interest (liver, bone and spleen mainly) and excreta were collected at different times for measurement of Pu alpha activity.

The target in data set [8] is gastrin-releasing peptide receptor (GRPr) (human (endogenous in PC-3, T47D, MDA-MB-231)) (UniProt P30550).
Sequence of gastrin-releasing peptide receptor (GRPr) (human (endogenous in PC-3, T47D, MDA-MB-231)) (P30550 whole entry, stated change not applied): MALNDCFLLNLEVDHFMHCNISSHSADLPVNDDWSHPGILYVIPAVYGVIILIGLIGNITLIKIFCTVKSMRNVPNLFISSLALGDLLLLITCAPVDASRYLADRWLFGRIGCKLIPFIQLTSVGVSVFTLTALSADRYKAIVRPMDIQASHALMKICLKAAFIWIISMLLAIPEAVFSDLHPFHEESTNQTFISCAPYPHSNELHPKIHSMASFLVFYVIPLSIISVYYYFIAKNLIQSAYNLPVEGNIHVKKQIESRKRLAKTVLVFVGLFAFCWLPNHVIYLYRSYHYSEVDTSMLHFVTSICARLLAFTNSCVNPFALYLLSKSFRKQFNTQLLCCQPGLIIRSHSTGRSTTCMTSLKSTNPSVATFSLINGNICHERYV
Another data set deals with Capan-1 cells. Briefly: clonogenic survival assay, Capan-1. Format: cell-based. The procedure: (§2) Methods: Flow cytometry: EGFR density was measured on AsPC-1, PANC-1, MiaPACA-2, and Capan-1 cell lines. Cells were incubated with panitumumab for 60 min, then with Alexa Fluor 647 anti-human IgG immunoconjugates for 30 min at 4°C, then run on a flow cytometer. Clonogenic survival assays: Cells were treated with γ-radiation (0-8Gy) or ^177Lu-RIT (0-3MBq/72nM) then seeded in into 6-well plates and allowed to grow at 37°C, 5% CO2, for 14 days. Then colonies were fixed/stained and counted. Subcellular fractionation: Cells were treated with ^177Lu-RIT (1MBq/72nM) for 1, 3, 4, and 24 hours. Radioactivity associated with cell surface, cytoplasm, and nucleus was separated then measured in a γ-counter.

In another data set the test system is AsPC-1 cells. Briefly: clonogenic survival assay, AsPC-1. Format: cell-based. On the procedure:
as §2

A further data set relates to MIAPaca-2 cells. Briefly: clonogenic survival assay, MIAPaca-2. Format: cell-based. On the procedure:
as §2

For a further data set, the system named is PANC-1 cells. Nature of the data set: clonogenic survival assay, PANC-1. Format: cell-based. The procedure:
as §2

Setting [9] is: plasma enriched with octreotide.
Setting [10] is: 2TCM, image-derived input function, WT Q175DN mice n = 9.

The source of these data is paper PMC5954004, “19th European Symposium on Radiopharmacy and Radiopharmaceuticals (ESRR’18)” (EJNMMI Radiopharmacy and Chemistry, 2018).

Read-outs that look alike come from different tables or passages of the source.

On to `CC(=O)NC1CCCN(O)C(=O)/C=C(/C)CCOC(=O)C(NC(=O)CCOCCOCCOCCOCCOCCC(=O)NCc2ccc(-c3nncnn3)cc2)CCCN(O)C(=O)/C=C(/C)CCOC(=O)C(NC(C)=O)CCCN(O)C(=O)/C=C(/C)CCOC1=O` (centres unmarked) (68Ga complex, metal not drawn) [DAFC-(PEG5Tz)], for which, in data set [1], the log p entry is on record as “below -1”. For the same compound, the “binding after binding of Rtx-TCO to CD20 expressing cells” value (“binding after binding of Rtx-TCO” below) in data set [2] turned out to be 4.01 ± 0.24%. Further, the blood levels in [3] came out at 1 %ID/g. In addition, the protein binding result in data set [4] is on record as “exceeded 50%”.
In the case of `C/C1=C/C(=O)N(O)CCCC(NC(=O)CCOCCOCCOCCOCCOCCC(=O)NCc2ccc(-c3nncnn3)cc2)C(=O)OCC/C(C)=C\C(=O)N(O)CCCC(NC(=O)CCOCCOCCOCCOCCOCCC(=O)NCc2ccc(-c3nncnn3)cc2)C(=O)OCC/C(C)=C\C(=O)N(O)CCCC(NC(=O)CCOCCOCCOCCOCCOCCC(=O)NCc2ccc(-c3nncnn3)cc2)C(=O)OCC1` (centres unmarked) (68Ga complex, metal not drawn) [FSC-(PEG5Tz)3], in data set [1], the log p entry is “below -1”. For the same compound, in data set [2], the “binding after binding of Rtx-TCO” value was determined as 15.9 ± 0.88%. In [3], this compound registered a blood levels of 3 %ID/g. The protein binding result in [4] is “exceeded 50%”.
For `CC(=O)NC1CCCN(O)C(=O)/C=C(/C)CCOC(=O)C(NC(=O)CCOCCOCCOCCOCCOCCC(=O)NCc2ccc(-c3nncnn3)cc2)CCCN(O)C(=O)/C=C(/C)CCOC(=O)C(NC(=O)CCOCCOCCOCCOCCOCCC(=O)NCc2ccc(-c3nncnn3)cc2)CCCN(O)C(=O)/C=C(/C)CCOC1=O` (centres unmarked) (68Ga complex, metal not drawn) [MAFC-(PEG5Tz)2], the log p result in data set [1] is recorded as “below -1”. The “binding after binding of Rtx-TCO” value in data set [2] worked out at 7.75 ± 0.56%. Moreover, in data set [4], the protein binding result was “exceeded 50%”.
In the case of `C[C@@H](O)[C@H](NC(=O)[C@@H]1CSSC[C@H](NC(=O)[C@@H](Cc2ccccc2)NC(=O)CN2CCN(CC(=O)O)CCN(CC(=O)O)CCN(CC(=O)O)CC2)C(=O)N[C@@H](Cc2ccc(O)cc2)C(=O)N[C@H](Cc2c[nH]c3ccccc23)C(=O)N[C@@H](CCCCN)C(=O)N[C@@H]([C@@H](C)O)C(=O)N1)C(=O)O` [177Lu-DOTATATE, metal not drawn], in data set [5] (setting [9]), the “hydroxylated Lutetium” value is 6.3%±1.8% and the unbound lutetium was 4.8%±0.8%. Besides, in data set [5] (plasma, mean±SD n = 3-4), the “hydroxylated Lutetium” value was 4.9%±1.3% and the unbound lutetium was 4.2%±0.6%.
Turning to `COCCN(C)Cc1ccc2c(c1)nc1sc(C(=O)N(C)C3CCCCC3)cn12` [YM-202074], the “blockade and displacement of [11C]ITDM” value at mGluR1 (20mg/kg i.v., 2min before and 30min after tracer injection, all investigated brain regions) was “significant blockade and displacement”.
For `CC(C)Nc1cc(-c2csc(N(C)C(=O)c3ccc([11CH3])cc3)n2)ncn1` [[^11C]ITDM], on mGluR1 (setting [10]), the VT cerebellum amounted to 9.1±2.1 mL/cm^3 and the VT thalamus is on record as 8.2±2.1 mL/cm^3.
In the case of `NC[C@H](CC(=O)O)c1ccc(Cl)c(OCc2ccnc(F)c2)c1` [[^18F]1, (R)-4-amino-3-(4-chloro-3-((2-fluoropyridin-4-yl)methoxy)phenyl) butanoic acid], at GABAB receptors (CD-1 male mice), the mouse brain uptake is 1 % ID/g tissue. Moreover, the “inhibition of accumulation in the mouse brain” value on GABAB receptors (pre-injection of a selective GABAB agonist) came out at 35%.
In the case of `CCCC[C@@H](C(=O)N[C@@H](CC(=O)O)C(=O)N[C@@H](Cc1cccc2ccccc12)C(N)=O)N(C)C(=O)[C@H](Cc1c[nH]c2ccccc12)NC(=O)CNC(=O)[C@H](Cc1ccc(O)cc1)NC(=O)[C@H](C)NC(=O)[C@@H](CCC(=O)O)NC(=O)CN1CCN(CC(=O)O)CCN(CC(=O)O)CCN(CC(=O)O)CC1` [^177Lu-DOTA-MGS5, metal not drawn], the tissue to tissue ratio at 4 h was over 6 in “in vivo” (A431-CCK2R tumour / kidneys) and over 3 in “in vivo” (A431-CCK2R tumour / stomach). For the same compound, in [6], the “stability in blood, intact peptide” value is given as over 80%.
Turning to `O=C(O)CN(CCN(CC(=O)O)CC(=O)O)CCN(CC(=O)O)CC(=O)O` [free DTPA], in [7], the “decrease of hepatic Pu level” value amounted to 19%, the “decrease of skeletal Pu level” value came to 12% and the “decrease of splenic Pu level” value was 24%.
With “GRPr antagonist H2N-4-amino-1-carboxymethyl piperidine-[(R)-Phe^6, Sta^13]BN(6-14) linked to the chelator HBED-CC, labelled with 68Ga (peptide)”, in data set [8], the cell bound, % given radioactivity (MDA-MB-231+ cells, 1 h) (% given radioactivity) came to 3; the cell bound, % given radioactivity (PC-3+ cells, 1 h) (% given radioactivity) came out at 30; the cell bound, % given radioactivity (T47D+ cells, 1 h) (% given radioactivity) was found to be 9.
As for “^177Lu-RIT: panitumumab modified with a NOTA chelator and radiolabeled with 177Lu”, the “D10 (clonogenic survival reduced to 10%)” value was found to be 1 MBq in the data set on Capan-1 cells (Capan-1), 3.1 MBq in the data set with AsPC-1 cells (AsPc-1), 6.0 MBq in the data set on MIAPaca-2 cells (MIAPaca-2) and 1.1 MBq in the data set on PANC-1 cells (PANC-1). In addition, the RBE is on record as 0.3 in the data set with Capan-1 cells (Capan-1, compared to γ-radiation); 0.2 with AsPC-1 cells (AsPc-1, compared to γ-radiation); 0.2 with MIAPaca-2 cells (MIAPaca-2, compared to γ-radiation); 1.0 with PANC-1 cells (PANC-1, compared to γ-radiation). Further, the “D10 after 177Lu-RIT” value in the data set with Capan-1 cells (Capan-1, microdosimetry) amounted to 8.2 Gy; with AsPC-1 cells (AsPc-1, microdosimetry), 16.9 Gy; in the data set on MIAPaca-2 cells (MIAPaca-2, microdosimetry), 23.3 Gy; in the data set on PANC-1 cells (PANC-1, microdosimetry) it was 5.7 Gy.
